From patent US12649744B2, “N-(pyridin-2-yl)-6,7,8,9-tetrahydro-5h-5,8-epiminocyclohepta[c]pyridine-10-carboxamide derivatives and similar compounds as GPR65 modulators for the treatment of cancer” (PATHIOS THERAPEUTICS LIMITED, priority 2020, dated 2026)

Molecular target: human recombinant GPR65 (Homo sapiens, UniProt Q8IYL9)
Experiment: Human GPR65 cAMP HTRF antagonist assay
Format: cell-based
Settings: 1321N1-hrGPR65 cells, assay pH of 7.2, cAMP HTRF; read-out: hGPR65 IC50
Source text: The “Human GPR65 cyclic adenosine monophosphate (cAMP) Homogeneous Time Resolved Fluorescence (HTRF) antagonist assay”, or simply “cAMP assay”, as described below, can be used to measure the potency of GPR65 modulators, which is expressed as the concentration of compound required to reduce the increase in cAMP concentration upon GPR65 activation by 50% (i.e. an IC50).
Human GPR65 Cyclic Adenosine Monophosphate (cAMP) Homogeneous Time Resolved Fluorescence (HTRF) Antagonist Assay Procedure
IC50 data was obtained by the following procedure:
1321N1 human astrocytoma cells stably expressing human recombinant GPR65 (1321N1-hrGPR65 cells, EuroscreenFast) were cultured according to the vendor's instructions.
Compounds were tested for their ability to antagonise GPR65, through measuring the concentration of cytoplasmic cAMP following treatment of the cells at a pH of 7.2 to activate GPR65 signalling and addition of the compound to be tested. The extent to which the expected rise in cAMP concentration upon GPR65 activation was suppressed by the added compound is indicative of its potency. The assay was carried out according to EuroscreenFast assay methodology as follows.
On the day of the assay, test compounds were added to 384-well, low volume, white microtiter plates by acoustic dispensing. KRH buffer (5 mM KCl, 1.25 mM MgSO4, 124 mM NaCl, 25 mM HEPES, 13.3 mM Glucose, 1.25 mM KH2PO4 and 1.45 mM CaCl2) was adjusted to pH 6.5, pH 7.6 and pH 8.4 by adding NaOH. 1321N1-hGPR65 cells were rapidly thawed and diluted in KRH, pH 7.6 prior to centrifugation at 300×g for 5 min and resuspension in assay buffer (KRH, pH 7.6, supplemented with 1 mM 3-isobutyl-1-methylxanthine (IBMX) and 200 μM ethylenediaminetetraacetic acid (EDTA)). Cells were added to assay plates at a density of 2,000 cells per well in a volume of 5 μl. Assay plates were briefly centrifuged at 100×g and then incubated at room temperature for 30 min. Cells were stimulated by the addition of 5 μL KRH, pH 6.5, to achieve an assay pH of 7.2, while control wells received 5 μl KRH, pH 8.4 to achieve an assay pH of 7.9. Assay plates were briefly centrifuged at 100×g and then incubated at room temperature for 30 min.
Accumulation of cAMP was detected by cAMP HTRF kit (Cisbio). d2-labeled cAMP and cryptate-labeled anti-cAMP antibody in Lysis and Detection Buffer (Cisbio) were added to assay plates, and the plates were incubated at room temperature for 1 h. HTRF measurements were performed using a Pherastar FSX instrument. Acceptor and donor emission signals were measured at 665 nm and 620 nm, respectively, and HTRF ratios were calculated as signal665 nm/signal620nm×10^4. Data were normalised to high and low control values and fitted with 4-parameter logistic regression to determine hGPR65 IC50 values for the test compounds, which are shown in Table 1.

Chain of human recombinant GPR65 (Q8IYL9 whole entry): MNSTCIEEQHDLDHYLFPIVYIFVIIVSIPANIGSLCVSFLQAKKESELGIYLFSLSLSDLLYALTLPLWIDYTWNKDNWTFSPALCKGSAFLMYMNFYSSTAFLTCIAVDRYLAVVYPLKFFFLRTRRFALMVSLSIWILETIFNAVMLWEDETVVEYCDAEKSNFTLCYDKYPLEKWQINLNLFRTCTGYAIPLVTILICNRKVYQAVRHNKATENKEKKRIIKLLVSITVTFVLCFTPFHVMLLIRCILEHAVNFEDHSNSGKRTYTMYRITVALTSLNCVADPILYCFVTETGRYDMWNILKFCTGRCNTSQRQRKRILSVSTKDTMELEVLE

SMILES	IC50 [nM]
O=C(Nc1cnc(-c2ccccc2)s1)N1[C@H]2CC[C@@H]1c1ccnc(F)c1C2 [Compound 29, (5R,8S)-1-Fluoro-N-(2-phenylthiazol-5-yl)-6,7,8,9-tetrahydro-5H-5,8-epiminocyclohepta[c]pyridine-10-carboxamide]	< 500
O=C(Nc1nc(Cl)c(Cl)s1)N1[C@H]2CC[C@@H]1c1ccnc(F)c1C2 [Compound 30, (5R,8S)-N-(4,5-Dichlorothiazol-2-yl)-1-fluoro-6,7,8,9-tetrahydro-5H-5,8-epiminocyclohepta[c]pyridine-10-carboxamide]	< 500
O=C(Nc1nnc(C2CC2)s1)N1[C@H]2CC[C@@H]1c1ccnc(F)c1C2 [Compound 31, (5R,8S)-N-(5-Cyclopropyl-1,3,4-thiadiazol-2-yl)-1-fluoro-6,7,8,9-tetrahydro-5H-5,8-epiminocyclohepta[c]pyridine-10-carboxamide]	500 to 5000
O=C(Nc1nnc(C2CCOCC2)s1)N1[C@H]2CC[C@@H]1c1ccnc(F)c1C2 [Compound 32, (5R,8S)-1-Fluoro-N-(5-(tetrahydro-2H-pyran-4-yl)-1,3,4-thiadiazol-2-yl)-6,7,8,9-tetrahydro-5H-5,8-epiminocyclohepta[c]pyridine-10-carboxamide]	> 5000
O=C(Nc1nnc(-c2ccccc2)s1)N1[C@H]2CC[C@@H]1c1ccnc(F)c1C2 [Compound 33, (5R,8S)-1-Fluoro-N-(5-phenyl-1,3,4-thiadiazol-2-yl)-6,7,8,9-tetrahydro-5H-5,8-epiminocyclohepta[c]pyridine-10-carboxamide]	< 500
Cn1nc(NC(=O)N2[C@H]3CC[C@@H]2c2ccnc(F)c2C3)c2ccccc21 [Compound 34, (5R,8S)-1-Fluoro-N-(1-methyl-1H-indazol-3-yl)-6,7,8,9-tetrahydro-5H-5,8-epiminocyclohepta[c]pyridine-10-carboxamide]	> 5000
O=C(Nc1ccc2nonc2c1)N1[C@H]2CC[C@@H]1c1ccnc(F)c1C2 [Compound 35, (5R,8S)-N-(Benzo[c][1,2,5]oxadiazol-5-yl)-1-fluoro-6,7,8,9-tetrahydro-5H-5,8-epiminocyclohepta[c]pyridine-10-carboxamide]	500 to 5000
O=C(Nc1cc(C(F)(F)F)on1)N1[C@H]2CC[C@@H]1c1ccnc(F)c1C2 [Compound 36, (5R,8S)-1-Fluoro-N-(5-(trifluoromethyl)isoxazol-3-yl)-6,7,8,9-tetrahydro-5H-5,8-epiminocyclohepta[c]pyridine-10-carboxamide]	< 500
N#Cc1ccc(NC(=O)N2[C@H]3CC[C@@H]2c2ccnc(F)c2C3)nc1C(F)(F)F [Compound 37, (5R,8S)-N-(5-Cyano-6-(trifluoromethyl)pyridin-2-yl)-1-fluoro-6,7,8,9-tetrahydro-5H-5,8-epiminocyclohepta[c]pyridine-10-carboxamide]	500 to 5000
N#Cc1cnc(NC(=O)N2[C@H]3CC[C@@H]2c2ccnc(F)c2C3)c(C(F)(F)F)c1 [Compound 38, (5R,8S)-N-(5-Cyano-3-(trifluoromethyl)pyridin-2-yl)-1-fluoro-6,7,8,9-tetrahydro-5H-5,8-epiminocyclohepta[c]pyridine-10-carboxamide]	< 500
O=C(Nc1ccc(OC(F)F)cn1)N1[C@H]2CC[C@@H]1c1ccnc(F)c1C2 [Compound 39, (5R,8S)-N-(5-(Difluoromethoxy)pyridin-2-yl)-1-fluoro-6,7,8,9-tetrahydro-5H-5,8-epiminocyclohepta[c]pyridine-10-carboxamide]	500 to 5000
O=C(Nc1ccc(OC(F)(F)F)cn1)N1[C@H]2CC[C@@H]1c1ccnc(F)c1C2 [Compound 40, (5R,8S)-1-Fluoro-N-(5-(trifluoromethoxy)pyridin-2-yl)-6,7,8,9-tetrahydro-5H-5,8-epiminocyclohepta[c]pyridine-10-carboxamide]	< 500
N#Cc1ccc(NC(=O)N2[C@H]3CC[C@@H]2c2ccnc(F)c2C3)nc1 [Compound 41, (5R,8S)-N-(5-Cyanopyridin-2-yl)-1-fluoro-6,7,8,9-tetrahydro-5H-5,8-epiminocyclohepta[c]pyridine-10-carboxamide]	500 to 5000
O=C(Nc1nc(-c2ccccc2)no1)N1[C@H]2CC[C@@H]1c1ccnc(F)c1C2 [Compound 42, (5R,8S)-1-Fluoro-N-(3-phenyl-1,2,4-oxadiazol-5-yl)-6,7,8,9-tetrahydro-5H-5,8-epiminocyclohepta[c]pyridine-10-carboxamide]	500 to 5000
Cc1nnc(NC(=O)N2[C@H]3CC[C@@H]2c2ccnc(F)c2C3)s1 [Compound 43, (5R,8S)-1-Fluoro-N-(5-methyl-1,3,4-thiadiazol-2-yl)-6,7,8,9-tetrahydro-5H-5,8-epiminocyclohepta[c]pyridine-10-carboxamide]	> 5000
O=C(Nc1ccc2nc(C(F)(F)F)ccc2c1)N1[C@H]2CC[C@@H]1c1ccnc(F)c1C2 [Compound 44, (5R,8S)-1-Fluoro-N-(2-(trifluoromethyl)quinolin-6-yl)-6,7,8,9-tetrahydro-5H-5,8-epiminocyclohepta[c]pyridine-10-carboxamide]	< 500
O=C(Nc1nnc(-c2ccccc2)o1)N1[C@H]2CC[C@@H]1c1ccnc(F)c1C2 [Compound 45, (5R,8S)-1-Fluoro-N-(5-phenyl-1,3,4-oxadiazol-2-yl)-6,7,8,9-tetrahydro-5H-5,8-epiminocyclohepta[c]pyridine-10-carboxamide]	500 to 5000
N#Cc1cnc(NC(=O)N2[C@H]3CC[C@@H]2c2ccnc(F)c2C3)cc1Cl [Compound 46, (5R,8S)-N-(4-Chloro-5-cyanopyridin-2-yl)-1-fluoro-6,7,8,9-tetrahydro-5H-5,8-epiminocyclohepta[c]pyridine-10-carboxamide]	< 500
N#Cc1ccc(NC(=O)N2[C@H]3CC[C@@H]2c2ccnc(F)c2C3)nc1Cl [Compound 47, (5R,8S)-N-(6-Chloro-5-cyanopyridin-2-yl)-1-fluoro-6,7,8,9-tetrahydro-5H-5,8-epiminocyclohepta[c]pyridine-10-carboxamide]	500 to 5000
Cn1nc(NC(=O)N2[C@H]3CC[C@@H]2c2ccnc(F)c2C3)cc1C(F)(F)F [Compound 48, (5R,8S)-1-fluoro-N-(1-methyl-5-(trifluoromethyl)-1H-pyrazol-3-yl)-6,7,8,9-tetrahydro-5H-5,8-epiminocyclohepta[c]pyridine-10-carboxamide]	> 5000
O=C(Nc1cc(C(F)(F)F)on1)N1[C@H]2CC[C@@H]1c1c[nH]c(=O)cc1C2 [Compound 49, (6S,9R)-3-oxo-N-(5-(trifluoromethyl)isoxazol-3-yl)-3,5,6,7,8,9-hexahydro-2H-6,9-epiminocyclohepta[c]pyridine-10-carboxamide]	< 500
O=C(Nc1cc(C(F)(F)F)no1)N1[C@H]2CC[C@@H]1c1ccnc(F)c1C2 [Compound 50, (5R,8S)-1-fluoro-N-(3-(trifluoromethyl)isoxazol-5-yl)-6,7,8,9-tetrahydro-5H-5,8-epiminocyclohepta[c]pyridine-10-carboxamide]	< 500
COC(=O)c1cc(NC(=O)N2[C@H]3CC[C@@H]2c2ccnc(F)c2C3)no1 [Compound 51, methyl-3-((5R,8S)-1-fluoro-6,7,8,9-tetrahydro-5H-5,8-epiminocyclohepta[c]pyridine-10-carboxamido)isoxazole-5-carboxylate]	500 to 5000
N#Cc1cc(NC(=O)N2[C@H]3CC[C@@H]2c2ccnc(F)c2C3)no1 [Compound 52, (5R,8S)-N-(5-cyanoisoxazol-3-yl)-1-fluoro-6,7,8,9-tetrahydro-5H-5,8-epiminocyclohepta[c]pyridine-10-carboxamide]	< 500
